# Measured values taken from article PMC11062922 (Nature Chemical Biology, 2023).
# Assays:
# ACOX1 = molecular target: T1, ACOX1 (Homo sapiens, UniProt Q15067); experiment: Kinobeads two-dose competition binding: ACOX1; details: sheet CATDS matrix 2; Gene Name ACOX1;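 note: competition of compounds with immobilized broad-spectrum kinase inhibitor beads in cell lysate at 100 and 1,000 nM, 45 min at 4 °C, bead-bound protein quantified by label-free MS versus DMSO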
# T1 construct: endogenous in cells
# T1 sequence (Q15067 1-660): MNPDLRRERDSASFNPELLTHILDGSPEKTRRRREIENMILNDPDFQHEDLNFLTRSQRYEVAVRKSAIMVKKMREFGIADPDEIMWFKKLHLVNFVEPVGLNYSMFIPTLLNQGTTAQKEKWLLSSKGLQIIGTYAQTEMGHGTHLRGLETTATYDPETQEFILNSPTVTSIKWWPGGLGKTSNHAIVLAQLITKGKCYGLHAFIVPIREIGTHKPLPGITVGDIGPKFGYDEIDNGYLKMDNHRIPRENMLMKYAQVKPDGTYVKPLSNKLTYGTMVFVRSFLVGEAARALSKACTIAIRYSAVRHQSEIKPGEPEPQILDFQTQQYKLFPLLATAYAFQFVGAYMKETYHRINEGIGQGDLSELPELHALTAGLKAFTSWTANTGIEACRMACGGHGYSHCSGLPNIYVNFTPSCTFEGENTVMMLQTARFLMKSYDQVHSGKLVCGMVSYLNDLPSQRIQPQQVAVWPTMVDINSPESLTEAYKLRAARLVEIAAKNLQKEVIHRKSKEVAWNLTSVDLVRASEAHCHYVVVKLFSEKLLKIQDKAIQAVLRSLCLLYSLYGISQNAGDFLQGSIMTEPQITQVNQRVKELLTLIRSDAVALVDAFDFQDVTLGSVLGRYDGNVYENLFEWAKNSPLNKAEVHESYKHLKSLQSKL
# AAK1 = molecular target: T2, AAK1 (Homo sapiens, UniProt Q2M2I8); experiment: Kinobeads two-dose competition binding: AAK1; details: for potency estimated from few doses: sheet "Kinobeads Drugmatrix - all", unit inferred, same values below 1000 recur in sheet "nanomolar", read-out: Kinobeads Drugmatrix - all: apparent Kd, AAK1; for CATDS: sheet CATDS matrix 2, Gene Name AAK1;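 for all read-outs here: kinobeads competition pulldown from cell lysate, compound preincubated 45 min at 4 °C, bead-bound protein measured by label-free mass spectrometry against DMSO vehicle control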
# T2 construct: to maximize the representation of endogenous proteins; endogenous in cells
# T2 sequence (Q2M2I8 whole entry): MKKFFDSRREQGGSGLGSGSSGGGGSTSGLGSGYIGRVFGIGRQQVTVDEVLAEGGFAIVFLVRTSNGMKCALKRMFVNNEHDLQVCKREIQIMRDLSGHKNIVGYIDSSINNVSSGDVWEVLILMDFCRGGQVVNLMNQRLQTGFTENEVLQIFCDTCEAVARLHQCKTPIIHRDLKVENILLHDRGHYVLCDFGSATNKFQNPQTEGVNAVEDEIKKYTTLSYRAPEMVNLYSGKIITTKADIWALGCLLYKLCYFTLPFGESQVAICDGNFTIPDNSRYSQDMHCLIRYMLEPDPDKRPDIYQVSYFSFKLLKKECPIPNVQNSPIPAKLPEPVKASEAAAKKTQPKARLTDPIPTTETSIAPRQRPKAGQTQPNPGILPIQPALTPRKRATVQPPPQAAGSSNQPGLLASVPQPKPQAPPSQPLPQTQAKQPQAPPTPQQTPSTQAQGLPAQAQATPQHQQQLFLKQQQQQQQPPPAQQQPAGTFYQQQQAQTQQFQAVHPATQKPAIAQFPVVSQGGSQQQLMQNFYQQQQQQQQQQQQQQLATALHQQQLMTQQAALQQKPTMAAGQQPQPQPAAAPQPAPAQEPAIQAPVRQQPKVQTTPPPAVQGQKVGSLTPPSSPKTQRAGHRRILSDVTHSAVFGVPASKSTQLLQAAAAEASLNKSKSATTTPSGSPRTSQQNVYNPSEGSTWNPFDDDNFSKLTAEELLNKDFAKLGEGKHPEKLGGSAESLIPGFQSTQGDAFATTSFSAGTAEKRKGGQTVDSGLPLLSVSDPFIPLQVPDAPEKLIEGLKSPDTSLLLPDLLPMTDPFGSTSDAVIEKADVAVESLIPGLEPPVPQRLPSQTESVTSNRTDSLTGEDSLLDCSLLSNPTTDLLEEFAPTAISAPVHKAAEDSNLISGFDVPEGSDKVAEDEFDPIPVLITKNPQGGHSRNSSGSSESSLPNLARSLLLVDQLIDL
# ABL1 = ABL1 (Homo sapiens, UniProt P00519); experiment: Kinobeads two-dose competition binding: ABL1; details: sheet CATDS matrix 2; Gene Name ABL1
# Chain of ABL1 (P00519 28-1130 limits assumed): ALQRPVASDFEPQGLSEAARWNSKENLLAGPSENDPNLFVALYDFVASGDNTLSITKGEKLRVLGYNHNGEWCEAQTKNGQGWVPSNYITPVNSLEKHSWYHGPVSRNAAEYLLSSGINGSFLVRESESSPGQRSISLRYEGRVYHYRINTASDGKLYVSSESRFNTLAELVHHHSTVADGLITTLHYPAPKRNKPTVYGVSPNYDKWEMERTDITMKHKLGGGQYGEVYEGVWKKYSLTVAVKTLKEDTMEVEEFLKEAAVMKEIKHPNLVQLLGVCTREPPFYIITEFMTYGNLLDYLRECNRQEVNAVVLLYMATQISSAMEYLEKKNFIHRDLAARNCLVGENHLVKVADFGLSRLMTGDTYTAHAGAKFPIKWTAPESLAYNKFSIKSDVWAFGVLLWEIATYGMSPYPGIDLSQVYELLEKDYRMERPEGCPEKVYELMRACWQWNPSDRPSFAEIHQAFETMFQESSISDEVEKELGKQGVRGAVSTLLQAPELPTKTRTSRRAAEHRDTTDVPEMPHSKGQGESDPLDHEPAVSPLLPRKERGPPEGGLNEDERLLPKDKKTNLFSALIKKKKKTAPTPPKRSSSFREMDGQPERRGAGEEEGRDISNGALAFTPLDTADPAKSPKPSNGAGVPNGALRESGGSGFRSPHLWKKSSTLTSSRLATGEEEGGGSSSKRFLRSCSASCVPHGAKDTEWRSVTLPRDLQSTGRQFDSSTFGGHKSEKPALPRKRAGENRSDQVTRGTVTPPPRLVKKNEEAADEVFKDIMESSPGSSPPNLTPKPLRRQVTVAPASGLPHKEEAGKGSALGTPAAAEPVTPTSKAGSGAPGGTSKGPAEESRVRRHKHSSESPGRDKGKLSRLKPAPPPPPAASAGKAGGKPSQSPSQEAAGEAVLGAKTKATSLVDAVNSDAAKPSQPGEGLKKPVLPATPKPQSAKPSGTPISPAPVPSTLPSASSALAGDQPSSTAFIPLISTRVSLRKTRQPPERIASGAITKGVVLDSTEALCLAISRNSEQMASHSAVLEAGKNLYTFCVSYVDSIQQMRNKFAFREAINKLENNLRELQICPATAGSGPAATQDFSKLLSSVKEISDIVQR
# ABL2 = molecular target: T3, ABL2 (Homo sapiens, UniProt P42684); experiment: Kinobeads two-dose competition binding: ABL2; details: sheet CATDS matrix 2; Gene Name ABL2
# T3 construct: endogenous in cells
# T3 sequence (P42684 whole entry): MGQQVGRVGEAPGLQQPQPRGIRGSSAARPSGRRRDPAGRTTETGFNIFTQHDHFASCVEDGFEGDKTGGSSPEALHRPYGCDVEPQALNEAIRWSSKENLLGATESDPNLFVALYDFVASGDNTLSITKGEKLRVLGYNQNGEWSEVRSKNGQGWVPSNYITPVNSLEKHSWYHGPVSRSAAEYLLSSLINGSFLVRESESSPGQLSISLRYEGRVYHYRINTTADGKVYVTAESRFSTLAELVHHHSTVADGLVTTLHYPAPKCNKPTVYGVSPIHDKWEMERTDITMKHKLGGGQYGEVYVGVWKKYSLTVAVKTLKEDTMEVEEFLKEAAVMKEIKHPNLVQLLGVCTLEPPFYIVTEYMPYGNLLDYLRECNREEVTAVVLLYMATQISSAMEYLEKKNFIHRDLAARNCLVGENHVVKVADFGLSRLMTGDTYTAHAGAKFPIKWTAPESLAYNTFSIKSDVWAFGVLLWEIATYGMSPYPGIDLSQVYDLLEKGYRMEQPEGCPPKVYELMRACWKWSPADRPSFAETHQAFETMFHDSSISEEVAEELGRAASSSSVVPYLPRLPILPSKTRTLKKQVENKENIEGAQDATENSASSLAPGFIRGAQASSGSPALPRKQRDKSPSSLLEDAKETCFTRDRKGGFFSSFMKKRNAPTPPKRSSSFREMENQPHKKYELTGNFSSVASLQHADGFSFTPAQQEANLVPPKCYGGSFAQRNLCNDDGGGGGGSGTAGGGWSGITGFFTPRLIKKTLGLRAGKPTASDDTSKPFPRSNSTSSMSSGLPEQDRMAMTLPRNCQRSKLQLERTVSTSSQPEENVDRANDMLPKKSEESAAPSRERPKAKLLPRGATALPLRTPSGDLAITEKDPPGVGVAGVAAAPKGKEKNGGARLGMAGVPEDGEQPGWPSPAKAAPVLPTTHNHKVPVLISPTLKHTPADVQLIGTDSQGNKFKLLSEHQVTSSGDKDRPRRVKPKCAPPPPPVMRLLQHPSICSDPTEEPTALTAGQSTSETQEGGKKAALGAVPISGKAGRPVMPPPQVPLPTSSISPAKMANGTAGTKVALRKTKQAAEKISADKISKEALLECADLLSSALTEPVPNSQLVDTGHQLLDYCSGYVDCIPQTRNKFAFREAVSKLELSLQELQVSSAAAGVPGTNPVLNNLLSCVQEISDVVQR
# ACAD11 = molecular target: T4, ACAD11 (Homo sapiens, UniProt Q709F0); experiment: Kinobeads two-dose competition binding: ACAD11; details: sheet CATDS matrix 2; Gene Name ACAD11
# T4 construct: endogenous in cells
# T4 sequence (Q709F0 1-780): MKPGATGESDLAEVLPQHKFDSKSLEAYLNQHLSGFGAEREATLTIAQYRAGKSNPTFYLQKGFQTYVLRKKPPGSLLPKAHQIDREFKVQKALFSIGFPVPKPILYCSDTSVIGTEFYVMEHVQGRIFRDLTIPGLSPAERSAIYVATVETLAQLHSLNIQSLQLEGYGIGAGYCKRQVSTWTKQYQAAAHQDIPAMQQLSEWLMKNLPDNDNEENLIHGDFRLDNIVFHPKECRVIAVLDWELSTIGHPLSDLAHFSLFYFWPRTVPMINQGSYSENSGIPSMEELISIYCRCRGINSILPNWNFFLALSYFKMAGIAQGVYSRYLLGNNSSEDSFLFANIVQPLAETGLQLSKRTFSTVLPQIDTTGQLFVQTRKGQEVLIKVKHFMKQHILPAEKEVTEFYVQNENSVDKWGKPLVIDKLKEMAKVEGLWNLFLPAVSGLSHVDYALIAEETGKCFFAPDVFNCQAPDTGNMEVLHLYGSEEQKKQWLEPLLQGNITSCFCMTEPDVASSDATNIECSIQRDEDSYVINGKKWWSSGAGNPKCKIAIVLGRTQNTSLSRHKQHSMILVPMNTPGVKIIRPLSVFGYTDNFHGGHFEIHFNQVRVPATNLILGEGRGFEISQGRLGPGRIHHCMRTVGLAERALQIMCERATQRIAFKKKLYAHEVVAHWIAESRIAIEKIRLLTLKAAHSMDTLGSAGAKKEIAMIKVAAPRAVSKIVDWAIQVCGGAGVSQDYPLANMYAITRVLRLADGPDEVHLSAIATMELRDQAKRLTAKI
SMILES,CATDS (ACOX1),potency estimated from few doses (AAK1) [nM],CATDS (AAK1),CATDS (ABL1),CATDS (ABL2),CATDS (ACAD11)
CCn1c(-c2nonc2N)nc2c(C#CC(C)(C)O)nc(O[C@@H](CN)c3ccccc3)cc21 [GSK1007102B],0,67.3,0.04112,0,0,0
Cc1ccc(NC(=O)Nc2cc(C(C)(C)C)nn2-c2ccccc2)cc1 [GSK1014915A],0,,0,0,0,0
NC(=O)c1sc(-n2cnc3ccccc32)cc1OCc1ccccc1Br [GSK1023156A],0,,0,0,0,0
NC(=O)c1sc(-n2cnc3ccccc32)cc1OCc1ccccc1F [GSK1024306A],0,,0,0,0,0
COc1cc2ncn(-c3cc(OCc4ccccc4C(F)(F)F)c(C(C)=O)s3)c2cc1OC [GSK1030059A],0,,0,0,0,0
O=c1[nH]cc(-c2ccc(O)cc2)c2sc(-c3ccncc3)cc12 [GSK1033723A],0,,0,0,0,0
Nc1nccc(-c2ccc3c(N)n[nH]c3c2)n1 [GSK1034945A],0,194,0.08249,0,0,0
c1ccc(-c2cc3ccncc3cc2OC2CCNCC2)cc1 [GSK1122999D],0,,0,0,0,0
CCCN1CCCC(c2ccc(Nc3nc(Nc4cc(F)ccc4C(N)=O)c4cc[nH]c4n3)c(OC)c2)C1 (stereo not shown) [GSK1173862A],0,,0,0,0,0
COc1cc(N2CCN(C(C)C)CC2)ccc1Nc1nc(Nc2ccc(F)cc2C(N)=O)c2cc[nH]c2n1 [GSK1220512A],0,,0,0,0,0
COc1ccc(Nc2nccc(-c3ccc(NC(=O)c4cc5cc(F)ccc5[nH]4)cc3)n2)cc1 [GSK1229496A],0,> 1000,0,0,0,0
NCC(NC(=O)c1cc(-c2ccnc3[nH]ccc23)cs1)c1ccccc1 (stereo not shown) [GSK1229959A],0,79.6,0.03638,0,0,0
NCCCC(NC(=O)c1cc(Br)c(-c2ccnc3[nH]ccc23)s1)c1ccccc1 (stereo not shown) [GSK1287544A],0,,0,0,0,0
Cc1cccc(Nc2nc(NCCN)ncc2C(N)=O)c1 [GSK1292139B],0,164,0.21,0,0,0
NCCC(NC(=O)c1cc(Br)c(-c2ccnc3[nH]ccc23)s1)c1ccccc1 (stereo not shown) [GSK1307810A],0,,0,0,0,0
NCC(NCc1ccc(-c2ccnc3[nH]ccc23)s1)c1ccccc1 (stereo not shown) [GSK1321565A],0,820,0.2016,0,0,0

SMILES,CATDS (ACOX1),potency estimated from few doses (AAK1) [nM],CATDS (AAK1),CATDS (ABL1),CATDS (ABL2),CATDS (ACAD11)
NC(CNC(=O)c1cc(Br)c(-c2ccnc3[nH]ccc23)s1)c1ccccc1 (stereo not shown) [GSK1322949A],0,> 1000,0,0,0,0
NCC(NC(=O)c1cc(-c2cccnc2)c(-c2ccnc3[nH]ccc23)s1)c1ccccc1 (stereo not shown) [GSK1323434A],0,,0,0,0,0
NCC(NC(=O)c1cc(-c2cn[nH]c2)c(-c2ccnc3[nH]ccc23)s1)c1ccccc1 (stereo not shown) [GSK1325775A],0,> 1000,0,0,0,0
O=C(Nc1c(F)cccc1F)c1cc(C(=O)c2ccccc2F)c[nH]1 [GSK1326180A],0,,0,0,0,0
CCCN1CCC(c2ccc(Nc3nc(Nc4cc(F)ccc4C(N)=O)c4cc[nH]c4n3)c(OC)c2)CC1 [GSK1326255A],0,,0,0,0,0
N#Cc1cccc(C(=O)NC2CCN(c3ccnc(Nc4ccc(F)cc4)n3)C2)c1 (stereo not shown) [GSK1379708A],0,,0,0,0,0
CC(=O)c1cccc(NC(=O)NC2CCN(c3ccnc(Nc4ccc(F)cc4)n3)C2)c1 (stereo not shown) [GSK1379710A],0,,0,0,0,0
COC(=O)C(NC(=O)NC1CCN(c2ccnc(Nc3ccc(F)cc3)n2)C1)c1ccccc1 (stereo not shown) [GSK1379712_KCGS],0,,0,0,0,0
CC(C(=O)NC1CCN(c2ccnc(Nc3ccc(F)cc3)n2)C1)c1ccc(Cl)cc1 (stereo not shown) [GSK1379713A],0,,0,0,0,0
Cc1ccc(C)c(NC(=O)NC2CCN(c3ccnc(Nc4ccc(F)cc4)n3)C2)c1 (stereo not shown) [GSK1379720A],0,,0,0,0,0
O=C(Nc1ccccc1F)NC1CCN(c2ccnc(Nc3ccc(F)cc3)n2)C1 (stereo not shown) [GSK1379722A],0,,0,0,0,0
COc1ccc(Nc2nccc(N3CCC(NC(=O)c4cccc(C#N)c4)C3)n2)cc1 (stereo not shown) [GSK1379730A],0,,0,0,0,0
COc1ccc(Nc2nccc(N3CCC(NC(=O)c4cccc(NC(C)=O)c4)C3)n2)cc1 (stereo not shown) [GSK1379732A],0,,0,0,0,0
COc1ccc(Nc2nccc(N3CCC(NC(=O)C(C)c4ccc(Cl)cc4)C3)n2)cc1 (stereo not shown) [GSK1379735A],0,,0,0,0,0
CCCc1ccc(S(=O)(=O)NC2CCN(c3ccnc(Nc4ccc(OC)cc4)n3)C2)cc1 (stereo not shown) [GSK1379737A],0,,0,0,0,0
